Measurements reported in US4175125A, “Method for treating methicillin resistant staphylococcus aureus” (Eli Lilly and Company, priority 1978, dated 1979).
Converted amounts (≈) assume the structure as drawn.

Columns and labels:
[1] = tested on: Staphylococcus aureus cultures; experiment: Broth dilution MIC in trypticase soy broth, low and high NaCl (Example 10); assay type: cell-based; conditions: for MIC: Staphylococcus aureus, TSB, read-out: MIC
Protocol: This example compares the antibiotic activities of methicillin, cephalothin and cephaloridine with the compounds of Examples 1, 2 and 3, in broth dilution tests. The MIC values, in μg/ml., are against the same Staphylococcus aureus cultures described in Example 9, except that in this example the cultures were grown in trypticase soy broth (TSB). Growing the cultures in two broth cultures, one having a low (0.5 percent) sodium chloride content and one having a high (5.0 percent) sodium chloride content is said to assist in identifying the methicillin-resistant cultures from those which are not methicillin-resistant. […] See Chabbert, Y. A., 1967 Postgrad. Med. J., 43 (suppl); 40-46. One expects that similar changes in MIC values for this type of culture to other β-lactam antibiotics, e.g., various penicillins and cephalosporins, to have similar implications. […] That is, methicillin-resistant S.aureus cultures are susceptible to the cephalosporin antibiotics used in this invention.

[2] = tested on: Staphylococcus aureus cultures; experiment: Agar dilution susceptibility test, phenylthioacetyl cephalosporins vs methicillin resistant S. aureus (Example 9); assay type: cell-based; conditions: for MIC: Staphylococcus aureus, read-out: MIC
Description: This example compares the antibiotic activities of three known compounds, methicillin, cephalothin, and cephaloridine, with three compounds from the above examples, in terms of minimum inhibitory concentration (MIC) values in microgram/milliliter units against various isolates of Staphylococcus aureus cultures. The culture numbers and the procedures used to obtain the reported data are disclosed by W. E. Wick and D. A. Preston in their article "Heterogeneous Methicillin-Resistant Staphylococcus Aureus" which appeared in Progress in Antimicrobial And Anticancer Chemotherapy, Proceedings of the 6th International Congress of Chemotherapy, Volume, 1, U. of Tokyo Press, Tokyo, (1970). In these agardilution susceptibility tests, the inocula were diluted to 10^3 bacteria per spot. Cultures 3055 (benzylpenicillin sensitive) and H232 (benzylpenicillin-resistant) are controls. The remaining cultures are methicillin-resistant, and, except for 3136, are clinical isolates. Culture 3136 is a 4th transfer laboratory selected mutant.

[3] = culture 3055 (control), table part marked b
[4] = culture 3055 (control), table part marked c
[5] = culture 3130, table part marked b
[6] = culture 3130, table part marked c
[7] = culture 3131, table part marked b
[8] = culture 3131, table part marked c
[9] = culture 3132 (first column so headed), table part marked b
[10] = culture 3132 (first column so headed), table part marked c
[11] = culture 3132 (second column so headed), table part marked b
[12] = culture 3132 (second column so headed), table part marked c
[13] = culture 3134, table part marked b
[14] = culture 3134, table part marked c
[15] = culture 3135, table part marked b
[16] = culture 3135, table part marked c
[17] = culture 3136, table part marked b
[18] = culture 3136, table part marked c
[19] = culture 3137, table part marked b
[20] = culture 3137, table part marked c
[21] = culture 3138, table part marked b
[22] = culture 3138, table part marked c
[23] = culture 3139, table part marked b
[24] = culture 3139, table part marked c
[25] = culture (Seattle) 966, table part marked b
[26] = culture (Seattle) 966, table part marked c
[27] = culture H232 (control), table part marked b
[28] = culture H232 (control), table part marked c
[29] = culture Kavarnick 1138501, table part marked b
[30] = culture Kavarnick 1138501, table part marked c
[31] = culture S61, table part marked b
[32] = culture S61, table part marked c
[33] = culture 3055 (control, benzylpenicillin sensitive), table part marked b
[34] = culture 3055 (control, benzylpenicillin sensitive), table part marked c
[35] = culture 3132, table part marked b
[36] = culture 3132, table part marked c
[37] = culture 3133, table part marked b
[38] = culture 3133, table part marked c
[39] = culture H232 (control, benzylpenicillin-resistant), table part marked b
[40] = culture H232 (control, benzylpenicillin-resistant), table part marked c
[41] = culture Kavarmark 1138501, table part marked b
[42] = culture Kavarmark 1138501, table part marked c

SMILES: COc1cccc(OC)c1C(=O)N[C@@H]1C(=O)N2[C@@H]1SC(C)(C)[C@@H]2C(=O)O [Methicillin, methicillin]
- difference in MIC values in low versus high salt TSB cultures ([1]; 0.5 percent vs 5.0 percent NaCl, methicillin-resistant S. aureus): wide disparity in MIC values
- MIC [1, 3]: 2 µg/mL (≈ 5.26 µM)
- MIC [1, 4]: 2 µg/mL (≈ 5.26 µM)
- MIC [1, 5]: 16 µg/mL (≈ 42.1 µM)
- MIC [1, 6]: 64 µg/mL (≈ 168 µM)
- MIC [1, 7]: 16 µg/mL (≈ 42.1 µM)
- MIC [1, 8]: 128 µg/mL (≈ 336 µM)
- MIC [1, 9]: 32 µg/mL (≈ 84.1 µM)
- MIC [1, 10]: 64 µg/mL (≈ 168 µM)
- MIC [1, 11]: 8 µg/mL (≈ 21 µM)
- MIC [1, 12]: 128 µg/mL (≈ 336 µM)
- MIC [1, 13]: 32 µg/mL (≈ 84.1 µM)
- MIC [1, 14]: 64 µg/mL (≈ 168 µM)
- MIC [1, 15]: 32 µg/mL (≈ 84.1 µM)
- MIC [1, 16]: 64 µg/mL (≈ 168 µM)
- MIC [1, 17]: 32 µg/mL (≈ 84.1 µM)
- MIC [1, 18]: 128 µg/mL (≈ 336 µM)
- MIC [1, 19]: > 128 µg/mL
- MIC [1, 20]: > 128 µg/mL
- MIC [1, 21]: 128 µg/mL (≈ 336 µM)
- MIC [1, 22]: 128 µg/mL (≈ 336 µM)
- MIC [1, 23]: 16 µg/mL (≈ 42.1 µM)
- MIC [1, 24]: > 128 µg/mL
- MIC [1, 25]: 8 µg/mL (≈ 21 µM)
- MIC [1, 26]: 64 µg/mL (≈ 168 µM)
- MIC [1, 27]: 4 µg/mL (≈ 10.5 µM)
- MIC [1, 28]: 4 µg/mL (≈ 10.5 µM)
- MIC [1, 29]: 32 µg/mL (≈ 84.1 µM)
- MIC [1, 30]: 128 µg/mL (≈ 336 µM)
- MIC [1, 31]: 16 µg/mL (≈ 42.1 µM)
- MIC [1, 32]: 64 µg/mL (≈ 168 µM)
- MIC ([1]; culture S, table part marked b): 16 µg/mL (≈ 42.1 µM)
- MIC ([1]; culture S, table part marked c): 16 µg/mL (≈ 42.1 µM)
- MIC [2, 33]: 1 µg/mL (≈ 2.63 µM)
- MIC [2, 34]: 2 µg/mL (≈ 5.26 µM)
- MIC [2, 5]: 8 µg/mL (≈ 21 µM)
- MIC [2, 6]: 128 µg/mL (≈ 336 µM)
- MIC [2, 7]: 8 µg/mL (≈ 21 µM)
- MIC [2, 8]: 128 µg/mL (≈ 336 µM)
- MIC [2, 35]: 8 µg/mL (≈ 21 µM)
- MIC [2, 36]: 32 µg/mL (≈ 84.1 µM)
- MIC [2, 37]: 8 µg/mL (≈ 21 µM)
- MIC [2, 38]: 128 µg/mL (≈ 336 µM)
- MIC [2, 13]: 16 µg/mL (≈ 42.1 µM)
- MIC [2, 14]: 64 µg/mL (≈ 168 µM)
- MIC [2, 15]: 8 µg/mL (≈ 21 µM)
- MIC [2, 16]: 64 µg/mL (≈ 168 µM)
- MIC [2, 17]: 8 µg/mL (≈ 21 µM)
- MIC [2, 18]: 64 µg/mL (≈ 168 µM)
- MIC [2, 19]: > 128 µg/mL
- MIC [2, 20]: > 128 µg/mL
- MIC [2, 21]: 16 µg/mL (≈ 42.1 µM)
- MIC [2, 22]: > 128 µg/mL
- MIC [2, 23]: 8 µg/mL (≈ 21 µM)
- MIC [2, 24]: > 128 µg/mL
- MIC [2, 25]: 8 µg/mL (≈ 21 µM)
- MIC [2, 26]: 64 µg/mL (≈ 168 µM)
- MIC [2, 39]: 2 µg/mL (≈ 5.26 µM)
- MIC [2, 40]: 2 µg/mL (≈ 5.26 µM)
- MIC [2, 41]: 8 µg/mL (≈ 21 µM)
- MIC [2, 42]: 128 µg/mL (≈ 336 µM)
- MIC [2, 31]: 8 µg/mL (≈ 21 µM)
- MIC [2, 32]: 128 µg/mL (≈ 336 µM)

SMILES: CC(=O)OCC1=C(C(=O)O)N2C(=O)C(NC(=O)CSc3ccc(Cl)c(Cl)c3)C2SC1 (stereo not drawn) [Example 1, 7-(3,4-dichlorophenylthioacetamido)cephalosporanic acid]
- MIC [1, 3]: 0.06 µg/mL (≈ 0.122 µM)
- MIC [1, 4]: 0.06 µg/mL (≈ 0.122 µM)
- MIC [1, 5]: 0.5 µg/mL (≈ 1.02 µM)
- MIC [1, 6]: 4 µg/mL (≈ 8.14 µM)
- MIC [1, 7]: 1 µg/mL (≈ 2.04 µM)
- MIC [1, 8]: 2 µg/mL (≈ 4.07 µM)
- MIC [1, 9]: < 0.5 µg/mL
- MIC [1, 10]: 2 µg/mL (≈ 4.07 µM)
- MIC [1, 11]: < 0.5 µg/mL
- MIC [1, 12]: 2 µg/mL (≈ 4.07 µM)
- MIC [1, 13]: 1 µg/mL (≈ 2.04 µM)
- MIC [1, 14]: 4 µg/mL (≈ 8.14 µM)
- MIC [1, 15]: < 0.5 µg/mL
- MIC [1, 16]: 2 µg/mL (≈ 4.07 µM)
- MIC [1, 17]: 0.5 µg/mL (≈ 1.02 µM)
- MIC [1, 18]: 2 µg/mL (≈ 4.07 µM)
- MIC [1, 19]: 2 µg/mL (≈ 4.07 µM)
- MIC [1, 20]: 4 µg/mL (≈ 8.14 µM)
- MIC [1, 21]: 1 µg/mL (≈ 2.04 µM)
- MIC [1, 22]: 1 µg/mL (≈ 2.04 µM)
- MIC [1, 23]: 1 µg/mL (≈ 2.04 µM)
- MIC [1, 24]: 1 µg/mL (≈ 2.04 µM)
- MIC [1, 25]: 0.5 µg/mL (≈ 1.02 µM)
- MIC [1, 26]: 2 µg/mL (≈ 4.07 µM)
- MIC [1, 27]: 0.12 µg/mL (≈ 0.244 µM)
- MIC [1, 28]: 0.25 µg/mL (≈ 0.509 µM)
- MIC [1, 29]: 0.5 µg/mL (≈ 1.02 µM)
- MIC [1, 30]: 2 µg/mL (≈ 4.07 µM)
- MIC [1, 31]: 2 µg/mL (≈ 4.07 µM)
- MIC [1, 32]: 2 µg/mL (≈ 4.07 µM)
- MIC ([1]; culture S, table part marked b): 2 µg/mL (≈ 4.07 µM)
- MIC ([1]; culture S, table part marked c): 2 µg/mL (≈ 4.07 µM)
- MIC [2, 33]: < 0.06 µg/mL
- MIC [2, 34]: < 0.06 µg/mL
- MIC [2, 5]: 0.5 µg/mL (≈ 1.02 µM)
- MIC [2, 6]: 1 µg/mL (≈ 2.04 µM)
- MIC [2, 7]: 1 µg/mL (≈ 2.04 µM)
- MIC [2, 8]: 1 µg/mL (≈ 2.04 µM)
- MIC [2, 35]: 0.5 µg/mL (≈ 1.02 µM)
- MIC [2, 36]: 0.25 µg/mL (≈ 0.509 µM)
- MIC [2, 37]: 0.5 µg/mL (≈ 1.02 µM)
- MIC [2, 38]: 1 µg/mL (≈ 2.04 µM)
- MIC [2, 13]: 1 µg/mL (≈ 2.04 µM)
- MIC [2, 14]: 0.5 µg/mL (≈ 1.02 µM)
- MIC [2, 15]: 0.5 µg/mL (≈ 1.02 µM)
- MIC [2, 16]: 0.25 µg/mL (≈ 0.509 µM)
- MIC [2, 17]: 0.5 µg/mL (≈ 1.02 µM)
- MIC [2, 18]: 0.5 µg/mL (≈ 1.02 µM)
- MIC [2, 19]: 2 µg/mL (≈ 4.07 µM)
- MIC [2, 20]: 2 µg/mL (≈ 4.07 µM)
- MIC [2, 21]: 1 µg/mL (≈ 2.04 µM)
- MIC [2, 22]: 0.5 µg/mL (≈ 1.02 µM)
- MIC [2, 23]: 1 µg/mL (≈ 2.04 µM)
- MIC [2, 24]: 0.25 µg/mL (≈ 0.509 µM)
- MIC [2, 25]: 0.5 µg/mL (≈ 1.02 µM)
- MIC [2, 26]: 0.25 µg/mL (≈ 0.509 µM)
- MIC [2, 39]: < 0.06 µg/mL
- MIC [2, 40]: < 0.06 µg/mL
- MIC [2, 41]: 0.5 µg/mL (≈ 1.02 µM)
- MIC [2, 42]: 0.5 µg/mL (≈ 1.02 µM)
- MIC [2, 31]: 0.5 µg/mL (≈ 1.02 µM)
- MIC [2, 32]: 1 µg/mL (≈ 2.04 µM)
- effectiveness in in vitro tests vs methicillin, cephalothin and cephaloridine ([2]; various cultures of methicillin-resistant Staphylococcus aureus): substantially more effective than methicillin, cephalothin, and cephaloridine
